System: E0771 tumor
Experiment: Infiltration of immune cells inside E0771 tumor, flow cytometry
Format: in vivo, mouse
Settings: 0.37 μg/kg DDA, day 15 post treatment
Description: FIGS. 5A-D. Infiltration of immune cells inside E0771 tumor. (A-D) These bar graphs represent the ratio between (A) Th1 (CD4+ Tbet+) and Treg (CD4+ Foxp3+), (B) CTL cells (CD8+ Granzym B+) on No CTL cells (CD8+ Granzym b−), (C) macrophage type M1 (CD14+ CCR7+ IFNg+) and type M2 (CD14+ CD206+ IL10+) (D) dendritic cells (CD11c+) and myeloid derived suppressive cells (MDSC: CD11b+CD11clow, LY6C+ly6Gint) infiltrated inside the tumor. The tumors were removed at day 15 post treatment with DDA at 0.37 μg/kg (b) or with the solvent vehicle (control) (a). To observe the cytotoxic CD8 T cells, the tumor suspension was prealably stimulated 2 h in vitro with a cocktail of PMA (50 ng/ml), ionomycine (500 ng/ml) and golgistop (concentration from manufacture BD Pharmagen), then the cells were stained with specific antibodies.
Tumor dissociation: Freshly excised tumors were trimmed of skin, fat, and necrotic tissue and minced in cold Hanks' medium. The minced tumor pieces were placed in an enzyme solution consisting of collagenase type D at 1 mg/ml and DNase type 1 at 20 μg/ml in Hanks' medium at 37° C. After 30 min of dissociation, the cell suspension was collected, washed with Hank's medium, and then suspended in PBS 1×, 0.5% BSA, 0.02% azide and […] EDTA (Facs medium).
Analysis of immune cells by flow cytometry. Immune cells from the tumors were stained with the indicated fluorescent-labelled antibodies: anti mouse α-CD4, α-CD8, α-T-bet, α-Foxp3, α-granzyme B, α-PD-1, α-CD44, α-Ly6C, α-Ly6G, α-CD11b, α-CD11c, α-CD206, α-CD86, α-IL10, α-IL-6, α-IL-4 purchased from eBioscience or Biolegend. Intracellular staining for T-bet, Foxp3, IFNg, Granzyme B, IL-10, IL-4 and IL-6 was performed according the manufacturer's protocol from Biolegend. To observe the cytotoxic CD8 T cells, the tumor suspension was prealably stimulated 2 h in vitro with a cocktail of PMA (50 ng/ml), ionomycine (500 ng/ml) and golgistop (concentration from manufacture BD Pharmingen), then the cells were stained with specific antibodies. To set the gates, flow cytometry dot plots were based on comparison with isotype control. Flow cytometry measurements of single-cells suspension were performed on a Fortessa 20X (BD pharmingen) and data were analyzed using FlowJo software.

CC(C)CCCC(C)[C@H]1CCC2C3C[C@@H](NCCc4cnc[nH]4)[C@@]4(O)C[C@@H](O)CC[C@]4(C)C3CC[C@@]21C (some centres unmarked) [DDA, 5a-hydroxy-6b-[2-(1H-imidazol-4-yl)ethylamino]cholestan-3b-ol]
increases: infiltration of CD4 Th1 cells inside the tumor | infiltration of activated CD8 (CTL) inside the tumor | infiltration of dendritic cells (DC: CD11c+) inside the tumor | infiltration of macrophage type M1 inside the tumor
decreases: infiltration into the tumor of inactivated CD8 (No CTL) | infiltration into the tumor of macrophage type M2 | infiltration into the tumor of myeloid derived suppressive cells (MDSC) | infiltration into the tumor of regulatory CD4 Treg cells

— patent US20230138400A1, “METHODS AND PHARMACEUTICAL COMPOSITIONS FOR REPROGRAMING IMMUNE ENVIRONMENT IN A SUBJECT IN NEED THEREOF” (INSERM (INSTITUT NATIONAL DE LA SANTE ET DE LA RECHERCHE …, priority 2016, published 2023)
